Values of other authors as cited in US11173064B2, “High-precision drug delivery by dual-domain ocular device” (LYNTHERA CORPORATION, priority 2016, dated 2021).
Structures can show the parent of a compound that is named as a salt.

Details: octanol/water

| log P | Structure (SMILES) |
| --- | --- |
| ~1.4 | CC(C)(C)NC[C@H](O)COc1nsnc1N1CCOCC1 [timolol maleate] |
| ~3.2 | CCNC(=O)CCC/C=C\C[C@@H]1[C@@H](/C=C/[C@@H](O)CCc2ccccc2)[C@H](O)C[C@@H]1O [bimatoprost] |
